The results in this text go back to patent US5051499A, “Novel nucleoside-phospholipid conjugate” (Toyo Jozo Kabushiki Kaisha, priority 1986, dated 1991).

In this assay the test system is P-388 leukemic cells. The assay is described as follows: Antitumor activity against mouse leukemia P-388, increase in life span (ILS). Type of assay: in vivo. The arrangement: dose or concentration left out as unconfirmed. Particulars: P388, ip, 120 h, Table 2, i.p., once a day for 5 days, BDF1 mice. Here is the method:
Antitumor activity against mouse leukemia P-388 carcinoma is shown in the ensuring examples, according to the following list of specifications:
2. Animal: BDF1 mice, age 5 weeks, male, Charles River Inc., 5 mice in an experimental group at 7 control mice.
3. Tumor cells: P-388 leukemic cells; 1×10^6 /0.2 ml are inoculated intraperitoneally in BDF1 mice of the experimental group.
4. Preparation of samples and administration of drugs:
Samples are suspended in Tris-HCl saline solution by sonification. 0.1 ml/10g body weight is administered.
Administration: starting one day after inoculation of tumor cells, once a day for 5 days intraperiotoneally.
5. Increase in life span (ILS) is calculated by the following equation: [formula]
Average survival date in control group is 7.86 days (7.57-7.93 days).

In turn, `CCCCCCCCCCCCCCCCOCC(COP(=O)(O)OC[C@H]1O[C@@H](n2cc(F)c(N)nc2=O)[C@@H](O)[C@@H]1O)OCCCCCCCCCCCCCCCC` (stereo partly drawn) [cetyl cetyl AraFC] registered an ILS of 152%.
The figure for `CCCCCCCCCCCCCCCCOCC(COP(=O)(O)OC[C@H]1O[C@@H](n2cc(F)c(=O)[nH]c2=O)[C@H](O)[C@@H]1O)OCCCCCCCCCCCCCCCC` (stereo partly drawn) [cetyl cetyl FUR] is 127%.
In the case of `CCCCCCCCCCCCCCCCOCC(COP(=O)(O)OCC1=C[C@@H](n2cnc3c(N)ncnc32)[C@H](O)[C@@H]1O)OCCCCCCCCCCCCCCCC` (stereo partly drawn) [cetyl cetyl NepA] it was 34.9%; in that of `CCCCCCCC/C=C\CCCCCCCCOCC(COP(=O)(O)OC[C@H]1O[C@@H](n2cc(F)c(N)nc2=O)[C@@H](O)[C@@H]1O)OCCCCCCCC/C=C\CCCCCCCC` (stereo partly drawn) [oleyl oleeyl AraFC], 148%; in that of `CCCCCCCC/C=C\CCCCCCCCOCC(COP(=O)(O)OC[C@H]1O[C@@H](n2cc(F)c(=O)[nH]c2=O)[C@H](O)[C@@H]1O)OCCCCCCCC/C=C\CCCCCCCC` (stereo partly drawn) [oleyl oleyl FUR], 76%.
The figure for `CCCCCCCC/C=C\CCCCCCCCOCC(COP(=O)(O)OCC1=C[C@@H](n2cnc3c(N)ncnc32)[C@H](O)[C@@H]1O)OCCCCCCCC/C=C\CCCCCCCC` (stereo partly drawn) [oleyl oleyl NepA] is 26%; for `CCCCCCCCCCCCCCCCCCOCC(COP(=O)(O)OC[C@H]1O[C@@H](n2cc(F)c(N)nc2=O)[C@@H](O)[C@@H]1O)OCCCCCCCCCCCCCCCCCC` (stereo partly drawn) [stearyl stearyl AraFC] it is 61%; for `CCCCCCCCCCCCCCCCCCOCC(COP(=O)(O)OC[C@H]1O[C@@H](n2cc(F)c(=O)[nH]c2=O)[C@H](O)[C@@H]1O)OCCCCCCCCCCCCCCCCCC` (stereo partly drawn) [stearyl stearyl FUR] it is 31%.
With `CCCCCCCCCCCCCCCCCCOCC(COP(=O)(O)OCC1=C[C@@H](n2cnc3c(N)ncnc32)[C@H](O)[C@@H]1O)OCCCCCCCCCCCCCCCCCC` (stereo partly drawn) [stearyl stearyl NepA], the ILS was 31%.

Usually ILS stands for the gain in survival time of treated over control animals, in per cent.
